Columns and labels:
[1] = Photophysical properties of the non-fluorescent compounds in DMSO solvent; format: physicochemical; set-up: εmax: unit not given here; details: for Quantum Yield(Φ) / εmax / λabs: DMSO solvent
Text: The photophysical properties measured in DMSO solvent for the non-fluorescent compounds synthesized according to the above synthesis examples are shown in Table 1 below.

[2] = commercially available quencher; cited from earlier work

Row | SMILES | maximum absorption wavelength [1] | Quantum Yield(Φ) [1] | εmax [1] | λabs [1] | absorbs light in the range [2]
1 | CCn1c(=CC=CC2=[N+](CCCC(=O)O)c3c(ccc4c3c3ccccc3n4C)C2(C)C)c2cccc3cccc1c32 [Dye 17] | above 650 nm | 0.002 | 37,000 | 672 nm | 
2 | C[n+]1c(C=CC=c2c3cccc4cccc(c43)n2CCCCCC(=O)O)sc2ccccc21 [Dye 2] | above 650 nm | 0.006 | 28,000 | 664 nm | 
3 | Cn1c(=CC=CC2=Nc3c(ccc[n+]3CCCCCC(=O)O)C2(C)C)c2cccc3cccc1c32 [Dye 12] |  | 0.002 | 53,000 | 676 nm | 
4 | CC[n+]1c(C=CC=c2c3cccc4cccc(c43)n2CCCCCC(=O)O)sc2ccc3ccccc3c21 [Dye 61] |  | 0.002 | 24,000 | 630 nm | 
5 | CCn1c(=CC=CC=CC2=[N+](CCCCCC(=O)O)c3cc4c(cc3C2(C)C)-c2ccccc2C4(C)C)c2cccc3cccc1c32 [Dye 18] |  | 0.005 | 74,000 | 680 nm | 
6 | C[n+]1c(C=CC=c2c3cccc4cccc(c43)n2CCCCCC(=O)O)oc2c3ccccc3ccc21 [Dye 60] |  | 0.007 | 42,000 | 600 nm | 
7 | CCN(CC)c1ccc2nc3ccc(/N=N/c4ccc(N(C)CCCC(=O)O)cc4)cc3[n+](-c3ccccc3)c2c1 [BHQ-3] |  |  |  |  | 650-700 nm
8 | Cn1c(=CC=CC2=[N+](CCCCCC(=O)O)c3ccc4sc5ccccc5c4c3C2(C)C)c2cccc3cccc1c32 [Dye 48] |  | 0.001 | 65,000 | 690 nm | 
9 | Cn1c(=CC=CC2=[N+](CCCCCC(=O)O)c3c(ccc4ccccc34)C2(C)C)c2cccc3cccc1c32 [Dye 16] | above 650 nm | 0.001 | 68,000 | 692 nm | 
10 | Cn1c(=CC=CC2=[N+](CCCCCC(=O)O)c3ccccc3C2(C)C)c2cccc3cccc1c32 [Dye 6] |  | 0.005 | 75,000 | 672 nm | 

— patent EP4685144A1, “NON-FLUORESCENT COMPOUND AND USES THEREOF” (SFC Co., Ltd., priority 2023, dated 2024)
